{"source": "patent US20030181436A1", "about": "“Treatment for AIDS, HIV, and other related diseases and compounds for use therewith” (priority 2001, published 2003)", "key": {"ACH-2 cells": {"tested_on": "ACH-2 cells", "assay": "ACH-2 assay, compound toxicity by MTS dye reduction", "assay_type": "cell-based", "parameters": "Y. CC / 9′. CC: unit not given here", "conditions": "exp 2", "experimental": "At assay termination the assay plates were stained with the soluble tetrazolium-based dye MTS (CellTiter® Reagent, Promega) to determined cell viability and quantify compound toxicity. […] At termination of the assay 20 μL of MTS reagent was added per well. The wells were incubated for 4 h at 37° C., 5% CO2. Adhesive plate scalers were used in place of the lids, the sealed plate was inverted several times to mix the soluble formazan product and the plate was read spectrophotometrically at 490 nm with a 650 nm reference wavelength on a Molecular Devices Vmax plate reader.\nU1 and ACH-2 cells were obtained from the AIDS Research and Reference Reagent Program and maintained under standard culture conditions in RPMI 1640 supplemented with 10% fetal bovine serum (heat inactivated), supplemented with 2 mM […], 100U/ml penicillin and 100 μg/ml, streptomycin. U1 cells were derived from the histocytic leukemia cell line U937, and contain a single integrated copy (HIV IIIB) […] a cytokine and/or phorbol inducible provirus. ACH-2 cells are derived from the A3.01 T lymphoblastic cell line, and contain 2 copies of the HIV IIIB provirus, however only one is cytokine and/or phorbol inducible. Cultures were maintained in such a way as to ensure exponential growth of the populations. At the time of the assay, cells were collected by centrifugation and counted by hemacytometer. If cell viability by Trypan Blue dye exclusion was less than 70% the assay was terminated. The cells were adjusted to 5×10^4 cells/mL and 100 μL, placed in 96 well plates with 100 μL media containing a final concentration of […] TNFα and the test compound. Cultures were incubated for 3 days and supernatants harvested. Compound toxicity was determined by MTS dye reduction. Virus expression was measured by supernatant reverse transcriptasc activity."}, "[1]": {"tested_on": "HIV RoJo (a clinical isolate)", "assay": "Chronically infected PBMCs, supernatant reverse transcriptase activity", "assay_type": "cell-based", "experimental": "Reverse transcriptase activity was measured in cell-free supernatants. Tritiated thymidine triphosphate (NEN) (TTP) was resuspended in distilled H2O at 5 Ci/mL. Poly rA and oligo dT were prepared as a stock solution which was kept at −20° C. The RT reaction buffer was prepared fresh on a daily basis and consists of 125 μL 1.0 M EGTA, 125 μL dH2O, 110 μL 10% SDS, 50 μL 1.0 M Tris (pH 7.4), 50 μL, 1.0 M DTT, and 40 μL 1.0 M MgCl2. These three solutions were mixed together in a ratio of 2 parts TTP, 1 part poly rA:oligo dT, and 1 part reaction buffer. Ten microliters of this reaction mixture was placed in a round bottom microtiter plate and 15 μL of virus containing supernatant was added and mixed. The plate was incubated at 37° C. in a water bath with a solid support to prevent submersion of the plate and incubated for 60 minutes. Following reaction, the reaction volume was spotted onto pieces of DE81 paper, washed 5 times for 5 minutes each in a 5% sodium phosphate buffer, 2 times for 1 minute each in distilled water, 2 times for 1 minute each in 70% ethanol, and then dried. Opti-Fluor O was added to each sample and incorporated radioactivity was quantitated utilizing a Wallac 1450 Microbetaplus liquid scintillation counter.\nIn these studies PBMCs are infected with HIV RoJo (a clinical isolate) and a dynamic population of infected PBMCs established over a period of 2 to 3 weeks. This population of infected PBMCs was established and maintained by the addition of fresh PBMCs in a 1:1 ratio every 7 days, thus overcoming the lost of PBMCs to normal cell death processes. Thus a population of cells was established that consisted of uninfected cells, short lived infected cells and long lived infected cells. In experiments where AZT was added to prevent re-infection of the population, we typically saw a 50% reduction in infection following a 7 day treatment. This means that 50% of the virus production from the infected […] population was due re-infection. […] Thus there was a population of infected PBMCs present ([…] of the total) which survived for extended periods of time and thus met the definition of being chronically infected."}}}
{"substance": "Potassium Iodiscorbate [Compound K]", "values": [{"measurement": "TOXICITY VALUES (MTS) MEAN", "setting": "ACH-2 cells; 0.00063 uM", "result": 0.990, "unit": "O. D."}, {"measurement": "Y. CC", "setting": "ACH-2 cells; 0.00063 uM", "result": 78.2}, {"measurement": "TOXICITY VALUES (MTS) MEAN", "setting": "ACH-2 cells; 0.002 uM", "result": 1.004, "unit": "O. D."}, {"measurement": "Y. CC", "setting": "ACH-2 cells; 0.002 uM", "result": 79.3}, {"measurement": "TOXICITY VALUES (MTS) MEAN", "setting": "ACH-2 cells; 0.00625 uM", "result": 1.000, "unit": "O. D."}, {"measurement": "Y. CC", "setting": "ACH-2 cells; 0.00625 uM", "result": 78.9}, {"measurement": "TOXICITY VALUES (MTS) MEAN", "setting": "ACH-2 cells; 0.02 uM", "result": 0.943, "unit": "O. D."}, {"measurement": "Y. CC", "setting": "ACH-2 cells; 0.02 uM", "result": 74.4}, {"measurement": "TOXICITY VALUES (MTS) MEAN", "setting": "ACH-2 cells; 0.0625 uM", "result": 0.891, "unit": "O. D."}, {"measurement": "Y. CC", "setting": "ACH-2 cells; 0.0625 uM", "result": 70.3}, {"measurement": "TOXICITY VALUES (MTS) MEAN", "setting": "ACH-2 cells; 0.2 uM", "result": 0.830, "unit": "O. D."}, {"measurement": "Y. CC", "setting": "ACH-2 cells; 0.2 uM", "result": 65.6}, {"measurement": "TOXICITY VALUES (MTS) MEAN", "setting": "ACH-2 cells; 0.625 uM", "result": 0.826, "unit": "O. D."}, {"measurement": "Y. CC", "setting": "ACH-2 cells; 0.625 uM", "result": 65.2}, {"measurement": "TOXICITY VALUES (MTS) MEAN", "setting": "ACH-2 cells; 2 uM", "result": 0.694, "unit": "O. D."}, {"measurement": "Y. CC", "setting": "ACH-2 cells; 2 uM", "result": 54.8}, {"measurement": "TOXICITY VALUES (MTS) MEAN", "setting": "ACH-2 cells; 6.25 uM", "result": 0.208, "unit": "O. D."}, {"measurement": "Y. CC", "setting": "ACH-2 cells; 6.25 uM", "result": 16.4}, {"measurement": "TOXICITY VALUES (MTS) MEAN", "setting": "ACH-2 cells; 20 uM", "result": 0.040, "unit": "O. D."}, {"measurement": "Y. CC", "setting": "ACH-2 cells; 20 uM", "result": 3.2}, {"measurement": "TOXICITY VALUES (MTS) MEAN", "setting": "ACH-2 cells; 62.5 uM", "result": 0.020, "unit": "O. D."}, {"measurement": "Y. CC", "setting": "ACH-2 cells; 62.5 uM", "result": 1.6}, {"measurement": "TOXICITY VALUES (MTS) MEAN", "setting": "ACH-2 cells; 200 uM", "result": 0.028, "unit": "O. D."}, {"measurement": "Y. CC", "setting": "ACH-2 cells; 200 uM", "result": 2.2}, {"measurement": "Percent Control by Supernatant Reverse Transcriptase activity", "setting": "[1]; Day 7, 1 μg/ml", "result": 94, "unit": "Percent Control"}, {"measurement": "Percent Control by Supernatant Reverse Transcriptase activity", "setting": "[1]; Day 7, 5 μg/ml", "result": 87, "unit": "Percent Control"}, {"measurement": "Percent Control by Supernatant Reverse Transcriptase activity", "setting": "[1]; Day 7, 10 μg/ml", "result": 92, "unit": "Percent Control"}, {"measurement": "Percent Control by Supernatant Reverse Transcriptase activity", "setting": "[1]; Day 7, 25 μg/ml", "result": 84, "unit": "Percent Control"}, {"measurement": "Percent Control by Supernatant Reverse Transcriptase activity", "setting": "[1]; Day 7, 50 μg/ml", "result": 70, "unit": "Percent Control"}, {"measurement": "Percent Control by Supernatant Reverse Transcriptase activity", "setting": "[1]; Day 7, 100 μg/ml", "result": 34, "unit": "Percent Control"}, {"measurement": "Percent Control by Supernatant Reverse Transcriptase activity", "setting": "[1]; Day 14, 1 μg/ml", "result": 94, "unit": "Percent Control"}, {"measurement": "Percent Control by Supernatant Reverse Transcriptase activity", "setting": "[1]; Day 14, 5 μg/ml", "result": 57, "unit": "Percent Control"}, {"measurement": "Percent Control by Supernatant Reverse Transcriptase activity", "setting": "[1]; Day 14, 10 μg/ml", "result": 66, "unit": "Percent Control"}, {"measurement": "Percent Control by Supernatant Reverse Transcriptase activity", "setting": "[1]; Day 14, 25 μg/ml", "result": 65, "unit": "Percent Control"}, {"measurement": "Percent Control by Supernatant Reverse Transcriptase activity", "setting": "[1]; Day 14, 50 μg/ml", "result": 56, "unit": "Percent Control"}, {"measurement": "Percent Control by Supernatant Reverse Transcriptase activity", "setting": "[1]; Day 14, 100 μg/ml", "result": 75, "unit": "Percent Control"}, {"measurement": "Percent Control by Supernatant Reverse Transcriptase activity", "setting": "[1]; da 21, 1 μg/ml", "result": 90, "unit": "Percent Control"}, {"measurement": "Percent Control by Supernatant Reverse Transcriptase activity", "setting": "[1]; da 21, 5 μg/ml", "result": 77, "unit": "Percent Control"}, {"measurement": "Percent Control by Supernatant Reverse Transcriptase activity", "setting": "[1]; da 21, 10 μg/ml", "result": 74, "unit": "Percent Control"}, {"measurement": "Percent Control by Supernatant Reverse Transcriptase activity", "setting": "[1]; da 21, 25 μg/ml", "result": 63, "unit": "Percent Control"}, {"measurement": "Percent Control by Supernatant Reverse Transcriptase activity", "setting": "[1]; da 21, 50 μg/ml", "result": 46, "unit": "Percent Control"}, {"measurement": "Percent Control by Supernatant Reverse Transcriptase activity", "setting": "[1]; da 21, 100 μg/ml", "result": 50, "unit": "Percent Control"}, {"measurement": "IC50 in chronically infected PBMCs", "setting": "[1]; day 7", "result": 68, "unit": "µg/mL"}]}
